How the values were obtained:
human cancer cells = test: Cell viability; assay type: cell-based; settings: data not shown
RAW macrophages = test: In vitro invasion of RAW macrophages towards conditioned media; assay type: cell-based; settings: BAPN at 200 μM
Description: To determine if LOX levels affected the migration or invasion of BMDCs, we performed in vitro invasion assays using CM as a chemo-attractant (FIG. 21B). The migration of BMDCs was increased by FN, regardless of LOX.
In vitro migration and invasion of RAW macrophage cells towards CM (as chemo-attractant) was measured in a transwell assay as described above. Fibronectin (cFN, Sigma) was used at 25 μg/ml and BAPN at 200 μM. Matrigel plugs were formed by mixing 60% Matrigel with 40% CM prior to subcutaneous injection of 500 μl of the mixture. Plugs were removed 7 days later, fixed in OCT, sectioned and stained for B-cells (B220). Cells in 10 fields of view were counted at least 50 μm away from the edge of the plug.

MDA231 and SiHa cells = test: In vitro invasion assay (Matrigel-coated inserts); assay type: cell-based; settings: various human cancer cells; 24 hr oxygen deprived
Description: The first step of the metastatic process is cell invasion. […] The invasion of various human cancer cells in vitro was examined. […] Because LOX is a copper-dependent enzyme that can act intracellularly or extracellularly, cells were treated with bathocuprione disulphonate (BCS), a copper chelator that cannot permeate the cell membrane.
Invasive behavior was examined in vitro as previously described. Briefly, cells were serum deprived for 24 h then 2.5×10^4 cells were seeded in triplicate on both Matrigel-coated and uncoated inserts, moved to chambers containing 750 μl of FBS as a chemo-attractant and incubated at in normoxic or oxygen deprived conditions for 24 hr. Treatments with beta-aminoproprionitrile or bathocuprione disulphonate (Sigma) were performed 24 h prior to serum deprivation, and continued throughout the experiment.

LOX = LOX fluorescent activity assay, in vivo (plasma of treated tumor-bearing mice); settings: BAPN-treated and antibody-treated mice, terminal bleeds
From the text: LOX activity may be measured in a number of ways, using a soluble elastin or soluble collagen with labeled lysine as a substrate. Details of an activity assay are given in Royce et al., “Copper metabolism in mottled mouse mutants. The effect of copper therapy on lysyl oxidase activity in brindled (Mobr) mice,” Biochem J. 1982 Feb. 15; 202(2): 369-371. Especially preferred is a […] assay. One is described in Palamakumbura, et al. “A fluorometric assay for detection of lysyl oxidase enzyme activity in biological samples,” Anal Biochem. 2002 Jan. 15; 300(2):245-51. This method was used in the present work to assess LOX inhibition by BAPN and by anti-LOX antibody in cells in culture (using conditioned media) and in mice (using plasma), in a 96-well format.
LOX activity assay. The original method is described in Folgelgren, et al. J. Biol. Chem. 280:24690-24697 (2005). For the in vivo data, terminal bleeds were taken at the end of the experiment described above from untreated (control) mice, 2 and 3 wk BAPN mice, and antibody-treated mice. […] For the in vitro data, 50 μl of conditioned phenol-red-free medium was taken from cells incubated for 24 h under conditions of hypoxia. Samples were incubated overnight at 37° C. with different concentrations of BAPN or with purified LOX antibody at a concentration equivalent to 20 mg kg^−1 dose. Again, 0=fluorescent reading for 500 μM BAPN.

[1] = test system: Caski human cervical cancer cells; test: Tail vein metastasis and survival assay, Caski cells; assay type: in vivo, mice
Description: Described briefly below are the results of experiments conducted with several different cell types. • 1. PANCREATIC: Panc-1 human pancreatic cells (see ATCC CRL-1469) expressing LOX shRNA were subjected to a tail vein metastasis assay comparing their metastatic growth to that of control Panc-1 cells. […] CERVICAL: Tail vein metastasis assays were performed using Caski human cervical cancer cells (See CRL-1550). After 4 weeks of growth, half the mice were treated with BAPN. […] COLON: HCT116 human colon cancer cells (see CCL-247) were transfected to express LOX shRNA and grown as subcutaneous tumors in nude mice, while comparing their growth with that of control cells.
Caski Cervical cancer cells were injected into the tail vein of immune deficient mice and analyzed for survival differences. Metastases were allowed to form for two weeks before animals were treated with 100 mg/kg BAPN daily for up to 40 days. FIG. 14 is a Kaplan-Meyer plot showing survival of the animals. […] Upon discontinuation of BAPN treatment, animals started to die.

[2] = test system: MDA231 human breast cancer cells; test: Pulmonary foci after i.v. MDA231 cells with daily conditioned media injections; assay type: in vivo, mice; settings: i.v. tumor cells with daily CM injections
From the text: To determine if the effect of increased circulating LOX levels on the growth of tumor cell foci at metastatic sites was independent of the initial steps of metastasis from a primary tumor (Steeg (2006) Nat. Med. 12:895-904), we intravenously injected MDA231 human breast cancer cells that expressed either LOX-targeting shRNA or a scrambled control sequence (Wt). We also provided circulating LOX by daily intraperitoneal injections of conditioned media (CM) derived from Wt or LOX shRNA cells exposed to hypoxic (H) or normoxic (N) conditions for 24 hours in vitro. […] CM from aerobic LOX shRNA cells had the lowest LOX activity (FIG. 19B).
Local secretion of LOX by Wt tumor cells could sustain growth of Wt foci in the absence of exogenous circulating LOX, although larger foci were present when circulating LOX from hypoxic Wt CM was supplied (FIG. 19F-G). Since circulating LOX levels are highest in mice prior to metastasis formation from a primary tumor (FIG. 19A), we injected CM daily for 2 weeks prior to i.v. tumor cell injection (FIG. 19B).
Conditioned media (CM) consisted of serum-free Modified Eagle's Medium cultured on MDA231 LOX shRNA or control cells incubated in normoxia (N; 21% O2) or hypoxia (H; 2% O2) for 24 h. CM was passed through a 0.22-μm filter and 300-μl were injected intraperitoneally daily into mice (Kaplan (2005), supra). […]

In the case of `N#CCCN` [BAPN, β-aminoproprionitrile], the cell viability (human cancer cells) was “Neither treatment with BAPN nor treatment with BCS affected cell viability”, the “increased BMDC invasion with hypoxic Wt CM” value (RAW macrophages) was “could be prevented” and the “increased invasion under hypoxia or anoxia” value (MDA231 and SiHa cells) was “could be prevented”. For the same compound, the “LOX activity levels in the blood” value (LOX) was “Reduced LOX activity levels”, the animals survived ([1]; 100 mg/kg BAPN daily for up to 40 days, started two weeks after injection) was 100% and the “disease course on renewed BAPN treatment” value ([1]; BAPN administered after 90 days to animals that already harbored metastases) was “became stabilized”. For the same compound, the “lung foci (micro-metastases)” value ([1]; BAPN after 4 weeks of growth) was “eliminated formation of any lung foci” and the pulmonary foci formation [2] was “diminished foci formation”.
